± gives the expanded uncertainty stated by the source.

The conditions of data set [1]: 293.15 K; 101.33 kPa; Liquid; Vibrating tube method.
Data set [2] is described as follows: Boiling temperature at pressure P. Conditions: 101.3 kPa; Liquid; Closed cell (Static) method.
A short description of data set [3]: refractive index (Na D-line) (dimensionless). Conditions: 293.15 K; 101.33 kPa; Liquid; Standard Abbe refractometry.

`CC#N` [acetonitrile]: the mass density (usually the mass of a sample divided by its volume) in data set [1] is 782.1 ± 0.4 kg/m3. For the same molecule, in data set [2], the “Boiling temperature at pressure P” value came out at 81.44 ± 0.1 °C. The refractive index (as a rule, the speed of light in vacuum divided by its phase velocity in the sample) in data set [3] turned out to be 1.3439 ± 0.0004.

On to `CC(C)O` [propan-2-ol], for which, in data set [1], the mass density is on record as 786 ± 0.4 kg/m3. For the same molecule, in data set [2], the “Boiling temperature at pressure P” value was 82.34 ± 0.1 °C. Besides, the refractive index in data set [3] is on record as 1.3773 ± 0.0004.

These data come from the NIST ThermoML archive (doi:10.1016/j.fluid.2015.10.035).
